According to patent US20240217951A1, “PCSK9 INHIBITORS AND METHODS OF USE THEREOF” (AstraZeneca AB, priority 2022, published 2024):

Key:
[1] = biological target: GSK3β (Glycogen synthase kinase-3 beta) (Homo sapiens, UniProt P49841); test: Assay 6 - GSK3β assay (ThermoFisher Z-Lyte); format: biochemical; conditions: geometric mean; ATP Conc: 10 μM; read-out: Assay 6 (GSK3β FRET-Z-Lyte CR) GMean IC50 (μM) ATP Conc: 10
Method in brief: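 Z-Lyte fluorescence kinase assay with 0.22-0.92 ng GSK3β and 2 μM Ser/Thr 09 peptide in 50 mM HEPES pH 7.5, 10 mM MgCl2, 1 mM EGTA, 0.01% BRIJ-35. Kinase reaction 60 min at room temperature, then 60 min development. 10-point 3-fold titration from 10 μM in 1% DMSO, fitted to a sigmoidal dose-response curve.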

[2] = biological target: T1, potassium ion channel hERG (human Ether-á-go-go-Related Gene) (Homo sapiens, UniProt Q12809); test: Assay 5 - hERG assay (SyncroPatch 384PE patch clamp, CHO cells); format: cell-based; conditions: geometric mean; CHO cells over-expressing hERG; read-out: Assay 5 (hERG Hu CHO IF EPh CR-Syncro) GMean IC50
T1 construct: expressed in transfected cells; host or cells: Chinese hamster ovary K1 (CHO)
T1 sequence (Q12809 whole entry): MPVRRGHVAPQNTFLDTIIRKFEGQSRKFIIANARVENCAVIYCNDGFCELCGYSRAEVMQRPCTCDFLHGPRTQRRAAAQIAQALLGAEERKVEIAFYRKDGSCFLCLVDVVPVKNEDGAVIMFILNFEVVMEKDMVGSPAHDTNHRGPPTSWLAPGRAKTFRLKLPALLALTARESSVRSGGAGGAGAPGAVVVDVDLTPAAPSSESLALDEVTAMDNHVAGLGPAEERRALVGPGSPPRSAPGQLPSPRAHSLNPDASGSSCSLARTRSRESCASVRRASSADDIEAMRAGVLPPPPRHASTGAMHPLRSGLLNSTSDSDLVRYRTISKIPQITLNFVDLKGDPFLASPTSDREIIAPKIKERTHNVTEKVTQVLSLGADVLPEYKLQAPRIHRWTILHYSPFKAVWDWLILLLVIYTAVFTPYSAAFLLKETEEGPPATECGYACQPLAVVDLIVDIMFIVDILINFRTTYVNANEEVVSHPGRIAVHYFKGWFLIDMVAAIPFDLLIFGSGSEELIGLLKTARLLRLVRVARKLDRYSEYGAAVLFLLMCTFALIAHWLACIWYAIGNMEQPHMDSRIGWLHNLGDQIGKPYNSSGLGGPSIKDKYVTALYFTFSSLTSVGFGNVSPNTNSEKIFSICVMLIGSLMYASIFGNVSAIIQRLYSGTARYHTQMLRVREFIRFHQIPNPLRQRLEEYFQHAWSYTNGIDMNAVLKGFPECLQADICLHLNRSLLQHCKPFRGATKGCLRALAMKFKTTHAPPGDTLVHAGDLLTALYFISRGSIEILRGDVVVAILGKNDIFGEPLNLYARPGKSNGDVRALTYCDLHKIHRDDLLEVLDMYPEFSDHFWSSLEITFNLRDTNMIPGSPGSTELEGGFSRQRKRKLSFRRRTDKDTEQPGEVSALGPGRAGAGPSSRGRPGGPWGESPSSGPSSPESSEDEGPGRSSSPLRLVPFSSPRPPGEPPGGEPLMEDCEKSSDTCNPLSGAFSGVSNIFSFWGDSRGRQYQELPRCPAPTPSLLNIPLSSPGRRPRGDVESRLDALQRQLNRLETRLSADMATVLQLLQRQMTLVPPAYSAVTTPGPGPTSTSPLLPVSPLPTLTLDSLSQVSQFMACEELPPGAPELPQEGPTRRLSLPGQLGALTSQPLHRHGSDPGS
Method in brief: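 Automated high-throughput patch clamp on CHO-K1 cells overexpressing hERG at room temperature, KF/KCl internal with escin, NMDG-containing external at pH 7.4. Six-point cumulative compound addition, 0.33% DMSO final; wells kept only with seal >30 MΩ, Z′ >0.4 and current >0.2 nA.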

PCSK9 [3] = biological target: T2, PCSK9 (Homo sapiens, UniProt Q8NBP7, G670E/V474I); test: biochemical
T2 sequence (Q8NBP7 with tags, fused parts or gaps V474I/G670E): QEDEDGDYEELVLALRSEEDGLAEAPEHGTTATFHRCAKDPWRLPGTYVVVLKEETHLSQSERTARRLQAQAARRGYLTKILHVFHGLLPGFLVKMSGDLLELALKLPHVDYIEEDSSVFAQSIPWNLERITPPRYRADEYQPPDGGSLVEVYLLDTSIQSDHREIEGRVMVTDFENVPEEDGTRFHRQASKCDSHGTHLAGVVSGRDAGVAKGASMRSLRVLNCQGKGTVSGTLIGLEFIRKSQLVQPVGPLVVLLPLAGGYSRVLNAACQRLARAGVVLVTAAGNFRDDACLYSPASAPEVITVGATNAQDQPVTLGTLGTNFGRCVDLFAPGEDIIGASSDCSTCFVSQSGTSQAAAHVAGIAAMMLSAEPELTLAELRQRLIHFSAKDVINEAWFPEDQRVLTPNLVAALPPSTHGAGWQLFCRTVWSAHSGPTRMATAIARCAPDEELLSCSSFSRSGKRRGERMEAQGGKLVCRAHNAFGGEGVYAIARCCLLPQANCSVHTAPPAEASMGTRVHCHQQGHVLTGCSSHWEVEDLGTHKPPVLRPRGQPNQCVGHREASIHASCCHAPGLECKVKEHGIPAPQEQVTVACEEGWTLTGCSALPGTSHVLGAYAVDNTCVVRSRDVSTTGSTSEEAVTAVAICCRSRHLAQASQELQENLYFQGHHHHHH

PCSK9 [4] = biological target: T2, PCSK9; test: Assay 3 - PCSK9 LDL-C uptake assay in HepG2 cells; format: cell-based; design: TEV cleavage site (C); His6 (C); host or cells: added to HepG2 cells (ATCC #HB-8065); conditions: 125 nM PCSK9, pHrodo Red-LDL, read-out: Assay 3 LDL uptake potency
Description: Assay 3—PCSK9 LDL-C Uptake Assay
This assay measures for PCSK9 antagonist activity based on a test compound's capacity to restore LDL-C-uptake in HepG2 cells. The assay is based on exogenous PCSK9 and LDL-C complexed with a pH-sensitive dye. Outside the cells, at neutral pH, the pHrodo Red-LDL is dimly fluorescent but upon LDLR mediated endocytosis it fluoresces brightly. PCSK9 traffics the LDLR to intracellular degradation and reduces uptake of LDL-C. Inhibition of PCSK9 reduces LDLR degradation and the increased LDL-C uptake is quantified by fluorescence microscopy.
Preparation of Assay Reagents
Cell medium: MEM supplemented with 10% FBS, 1×NEAA and Sodium Pyruvate Assay medium: OptiMem supplemented with penicillin/streptomycin
Cells: HepG2 (ATCC #HB-8065)
Step by Step Protocol for Running the Assay:
• 1. Cryopreserved HepG2 cells were thawed in assay medium and centrifuged for 5 min at 250 g. Supernatant was discarded and the cell pellet resuspended in cell medium and counted with a Nucleocounter. Cells were again centrifuged 5 min at 250 g and the pellet was resuspended to 500000 cells/mL in assay medium. • 2. 20 μL of above cell mix was dispensed into black pclear TC treated 384 well plates with Multidrop Combi and left at room temperature for 20 minutes. • 3. Plates were incubated at 37° C., 5% CO2 for 24 h
• 1. Test compounds were prepared in concentration response in DMSO with a half-log dilution factor in DMSO in Echo 384 LDV plates starting at 10 mM. • 2. 30 nL of above test compounds were dispensed with Echo 655 to cells for a top concentration of 10 μM • 3. 10 μL PCSK9 in assay medium was dispensed to cells with Multidrop Combi for 125 nM final concentration in the wells. • 4. Plates were incubated at 37° C., 5% CO2 for 24 h
• 1. 10 μL pHrodo Red-LDL in assay medium was dispensed to cells with Multidrop Combi for 6 μg/mL • 2. Plates were incubated at 37° C., 5% CO2 and imaged with the Incucyte S3 after 4 h and 24 h
Image data was processed using Incucyte 2021, a software to identify cells and red fluorescent intensity. Screener was used to further process data. Data was normalized as % effect of the signal between median values of the on-plate controls of DMSO and 100 nM Evolocumab according to the formula % effect=−100*(x−DMSO)/(Evolocumab−DMSO) where x equals the measured signal. Concentration response data of the normalized values were fitted using a four-parameter logistic fit.

Chain of GSK3β (Glycogen synthase kinase-3 beta) (P49841 whole entry): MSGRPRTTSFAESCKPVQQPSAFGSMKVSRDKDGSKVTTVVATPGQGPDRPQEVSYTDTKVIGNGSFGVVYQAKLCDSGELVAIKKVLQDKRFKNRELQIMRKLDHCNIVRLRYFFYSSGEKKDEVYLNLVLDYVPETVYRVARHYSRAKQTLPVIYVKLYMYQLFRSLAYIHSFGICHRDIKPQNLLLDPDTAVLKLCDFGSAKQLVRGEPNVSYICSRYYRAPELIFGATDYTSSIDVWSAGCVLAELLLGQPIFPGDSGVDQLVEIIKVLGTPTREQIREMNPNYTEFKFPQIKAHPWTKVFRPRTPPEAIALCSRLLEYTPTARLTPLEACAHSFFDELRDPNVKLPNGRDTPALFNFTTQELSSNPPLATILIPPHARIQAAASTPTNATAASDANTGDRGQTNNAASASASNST

Row | SMILES | IC50 [1] [µM] | IC50 [2] [nM] | IC50 (PCSK9 [3]) [nM] | EC50 (PCSK9 [4]) [nM]
1 | Cc1cnc(N[C@H]2CC[C@H](Nc3ccc(-n4cc(-c5cn[nH]c5)ccc4=O)cn3)C2)cn1 [Example 207, 6′-(((1S,3S)-3-((5-Methylpyrazin-2-yl)amino)cyclopentyl)amino)-5-(1H-pyrazol-4-yl)-2H-[1,3′-bipyridin]-2-one] | > 10 | > 40100 | 8.6 | 400
2 | Cc1cnc(N[C@H]2CC[C@H](Nc3ccc(-n4cc(-c5c[nH]nn5)ccc4=O)cn3)C2)cn1 [Example 209, 6′-(((1S,3S)-3-((5-Methylpyrazin-2-yl)amino)cyclopentyl)amino)-5-(1H-1,2,3-triazol-4-yl)-2H-[1,3′-bipyridin]-2-one] | > 10 | > 40100 | 6.3 | 200
3 | Cc1cnc(N[C@H]2CC[C@H](Nc3ccc(-n4c(=O)n(C)c5ccc(C#N)cc54)cn3)C2)cn1 [Example 215, 1-Methyl-3-(6-(((1S,3S)-3-((5-methylpyrazin-2-yl)amino)cyclopentyl)amino)pyridin-3-yl)-2-oxo-2,3-dihydro-1H-benzo[d]imidazole-5-carbonitrile] | > 10 | 16000 | 1 | 100
4 | Cc1cnc(N[C@H]2CC[C@H](Nc3ccc(-n4c(=O)n(C)c5cc(C#N)ccc54)cn3)C2)cn1 [Example 216, 3-Methyl-1-(6-(((1S,3S)-3-((5-methylpyrazin-2-yl)amino)cyclopentyl)amino)pyridin-3-yl)-2-oxo-2,3-dihydro-1H-benzo[d]imidazole-5-carbonitrile] | > 10 | 7300 | 2.8 | 300
5 | Cc1cnc(N[C@H]2CC[C@H](Nc3ccc(-n4c(=O)n(C)c5cc(C#N)cnc54)cn3)C2)cn1 [Example 218, 1-Methyl-3-(6-(((1S,3S)-3-((5-methylpyrazin-2-yl)amino)cyclopentyl)amino)pyridin-3-yl)-2-oxo-2,3-dihydro-1H-imidazo[4,5-b]pyridine-6-carbonitrile] | > 10 | 22500 | 5.4 | 300
6 | Cc1cnc(N[C@H]2CC[C@H](Nc3ccc(-n4nccc(Cl)c4=O)cn3)C2)cn1 [Example 232, 4-Chloro-2-(6-(((1S,3S)-3-((5-methylpyrazin-2-yl)amino)cyclopentyl)amino)pyridin-3-yl)pyridazin-3 (2H)-one] | > 10 | 39900 | 3.7 | 500
7 | Cc1cnc(N[C@H]2CC[C@H](Nc3ccc(-n4cc(CS(C)(=O)=O)ccc4=O)cn3)C2)cn1 [Example 259, 6′-(((1S,3S)-3-((5-Methylpyrazin-2-yl)amino)cyclopentyl)amino)-5-((methylsulfonyl)methyl)-2H-[1,3′-bipyridin]-2-one] | > 10 | > 40100 | 43 | > 600
